US20260364088A1, “TASL MIMICKING MOLECULES AND APPLICATIONS THEREOF” (CEMM - FORSCHUNGSZENTRUM FÜR MOLEKULARE MEDIZIN GMBH, priority 2022, published 2026)
pIC50: −log10 of the molar value. Like-named read-outs stand apart in the source and are kept apart here.

Target: T1, THP1 dual cell (Homo sapiens, UniProt Q8N697)
T1 construct: R848 (TLR7/8)-stimulated ISRE reporter
Assay: THP1 DUAL/ISRE cell reporter assay (R848 stimulated)
Format: cell-based
Description: CAL-1, THP1 or human primary cells were incubated with dTASL1 and other identified compounds (or the corresponding volume of DMSO vehicle) for 24 h or 48 h at the indicated concentration and subsequently stimulated with R848 (5 μg/ml) for the indicated time. Supernatant or cells were recovered for ELISA, SDS-PAGE or microscopy-based analysis.
THP1 DUAL cells (1×10^5 cells per 96 well) were incubated with compounds for 24 h or 48 h, and subsequently stimulated for 20 h as indicated. Cell culture supernatant were collected, cleared of residual cells by centrifugation and analyzed for NF-κB and ISRE reporter activity according to the manufacturer's instructions. For experiments in 384-well format, compounds were pre-plated at defined concentrations and THP1 dual cells were added at 800 k/well concentration in […]. After incubation for 24 h or 48 h cells were stimulated with […] of a 25 μg/ml stock of R848 or 0.5 μg/ml Pam3CKS4 5× stocks as indicated for 20 h and detected by directly adding Quanti-Luc Plus (Invivogen) solution to the plates, according to the manufacturer's instructions and without adding stabilizer solution. Quanti-Blue detection was carried out according to the manifacturers instructions, with QB reagent and buffer (Invivogen) dissolved in 30 ml water, instead of the 100 ml used for standard detection.
Based on potency and kinetics, the compound C5 was selected for further characterization (FIG. 2E). C5 is an elongated molecule comprised of an aromatic 2-(4-ethoxyphenyl)-quinoline moiety followed by an amide bond and an aliphatic 2-methyl-1-propylpiperidine (FIG. 2F). To validate the scaffold and explore the chemical space at the aliphatic end of the compound, five analogues and an independently synthesized batch of C5 were obtained. […] Therefore the C5 compound was selected, which was named dTASL1 as its activity leads to TASL degradation, to assess effects on TLR7/8-induced signaling and responses.
The following compounds were assayed for their activity in the degradation assay (THP1 DUAL/ISRE cell reporter assay), as described herein: […]

[1] = 24 h treatment before R848 stimulation, read-out: IC50 24 h
[2] = 48 h treatment before R848 stimulation, read-out: IC50 48 h

T1 sequence (Q8N697 whole entry): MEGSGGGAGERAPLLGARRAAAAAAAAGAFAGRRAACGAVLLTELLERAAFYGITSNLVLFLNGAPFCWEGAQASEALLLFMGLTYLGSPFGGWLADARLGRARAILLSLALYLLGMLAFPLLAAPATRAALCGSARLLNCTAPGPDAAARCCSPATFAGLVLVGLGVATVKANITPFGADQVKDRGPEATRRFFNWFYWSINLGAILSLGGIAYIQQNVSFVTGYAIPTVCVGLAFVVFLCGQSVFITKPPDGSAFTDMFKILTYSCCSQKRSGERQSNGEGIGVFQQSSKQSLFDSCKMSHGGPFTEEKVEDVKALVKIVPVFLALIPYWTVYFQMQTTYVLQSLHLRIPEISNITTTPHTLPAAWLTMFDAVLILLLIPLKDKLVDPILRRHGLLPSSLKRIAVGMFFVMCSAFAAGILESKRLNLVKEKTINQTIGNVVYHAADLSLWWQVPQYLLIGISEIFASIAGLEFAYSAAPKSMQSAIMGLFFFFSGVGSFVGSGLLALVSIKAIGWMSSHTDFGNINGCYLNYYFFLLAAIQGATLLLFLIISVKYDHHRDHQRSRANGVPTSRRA

| SMILES | pIC50 [1] | pIC50 [2] |
| --- | --- | --- |
| CCOc1ccc(-c2cc(C(=O)NCCCN3CCCCC3)c3ccccc3n2)cc1 [dTASL1-a4] | 5.38 | 5.62 |
| CCOc1ccc(-c2cc(C(=O)NCCCN3CCCCCC3)c3ccccc3n2)cc1 [dTASL1-a2] | 5.46 | 5.53 |
